From ChEMBL document CHEMBL1201862, “PubChem BioAssay data set” (2004)
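Tested at 5 concentrations; 48 h exposure; 96-well plates; endpoints linearly interpolated, else capped at highest concentration. GI50: concentration for 50% inhibition of growth.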 Calls of active or inactive are those of the source. Cut-off read from the data, not from the text of the source: active = GI50 up to about 1.1 µM and inactive = higher.

Assays:
Test in all cases: growth of human tumour cells (NCI), 48 h
HOP-92 = system: HOP-92
Hs-578T = system: Hs-578T
SR = system: SR
T47D = system: T47D
K562 = system: K562
SF-539 = system: SF-539
ACHN = system: ACHN
OVCAR-8 = system: OVCAR-8
KM12 = system: KM12
OVCAR-3 = system: OVCAR-3
SK-OV-3 = system: SK-OV-3
SNB-75 = system: SNB-75
SN12C = system: SN12C
NCI-H460 = system: NCI-H460
SK-MEL-5 = system: SK-MEL-5
CCRF-CEM = system: CCRF-CEM
A549 = system: A549
NCI-H23 = system: NCI-H23
UACC-257 = system: UACC-257
HCT-116 = system: HCT-116

Row | Structure (SMILES) | GI50 (HOP-92) | GI50 (Hs-578T) | GI50 (SR) | GI50 (T47D) | GI50 (K562) | GI50 (SF-539) | GI50 (ACHN) | GI50 (OVCAR-8) | GI50 (KM12) | GI50 (OVCAR-3) | GI50 (SK-OV-3) | GI50 (SNB-75) | GI50 (SN12C) | GI50 (NCI-H460) | GI50 (SK-MEL-5) | GI50 (CCRF-CEM) | GI50 (A549) | GI50 (NCI-H23) | GI50 (UACC-257) | GI50 (HCT-116)
1 | Cc1cc(S(=O)(=O)Nc2nnc3cnc4ccccc4n23)c(S)cc1Cl | 11.1 µM (inactive) | 57.8 µM (inactive) | > 100 µM (inactive) | > 100 µM (inactive) | > 100 µM (inactive) | > 100 µM (inactive) | 6.73 µM (inactive) | > 52.1 µM (inactive) | > 83.6 µM (inactive) | 98.9 µM (inactive) | > 100 µM (inactive) | > 54.5 µM (inactive) | > 100 µM (inactive) | 51.5 µM (inactive) | > 41.7 µM (inactive) | > 100 µM (inactive) | > 100 µM (inactive) | > 100 µM (inactive) | > 100 µM (inactive) | > 100 µM (inactive)
2 | Nc1nc(Cl)c2ncn(Cc3cccc(CCl)c3)c2n1 | 1.64 µM (inactive) | 7.03 µM (inactive) | 1.74 µM (inactive) | 7.36 µM (inactive) | 4.38 µM (inactive) | 5.24 µM (inactive) | 3.45 µM (inactive) | 3.24 µM (inactive) | 4.53 µM (inactive) | 1.33 µM (inactive) | 20 µM (inactive) | 9.75 µM (inactive) | 8.05 µM (inactive) | 3.87 µM (inactive) | 5.7 µM (inactive) | 3.18 µM (inactive) | 13.2 µM (inactive) | 1.87 µM (inactive) | 6.01 µM (inactive) | 2 µM (inactive)
3 | N#CSC/C(Cl)=C/Cl.N#CSC/C(Cl)=C\Cl | > 100 µM (inactive) | > 100 µM (inactive) | > 100 µM (inactive) | > 100 µM (inactive) | > 100 µM (inactive) | > 100 µM (inactive) | > 100 µM (inactive) | > 100 µM (inactive) | > 100 µM (inactive) | > 100 µM (inactive) | > 100 µM (inactive) | > 100 µM (inactive) | > 100 µM (inactive) | > 100 µM (inactive) | > 100 µM (inactive) | 34.8 µM (inactive) | > 100 µM (inactive) | > 100 µM (inactive) | > 100 µM (inactive) | > 100 µM (inactive)
4 | S=C1NC(c2ccccc2)NC(c2ccccc2)S1 (stereo not given) | > 100 µM (inactive) | > 100 µM (inactive) | > 100 µM (inactive) | > 100 µM (inactive) | 42.2 µM (inactive) | > 100 µM (inactive) | > 100 µM (inactive) | > 100 µM (inactive) | > 100 µM (inactive) | > 100 µM (inactive) | > 100 µM (inactive) | > 100 µM (inactive) | > 100 µM (inactive) | 21.4 µM (inactive) | > 100 µM (inactive) | 2.2 µM (inactive) | > 100 µM (inactive) | > 100 µM (inactive) | 34.6 µM (inactive) | > 100 µM (inactive)
5 | Cc1ccc(NC(=S)N/N=C(/c2ccccc2)c2ccccn2)cc1 | 0.278 µM (active) | 13.1 µM (inactive) | < 0.01 µM (active) | < 0.0509 µM (active) | < 0.0117 µM (active) | 0.729 µM (active) | < 0.0371 µM (active) | 0.0569 µM (active) | 0.1 µM (active) | 0.0169 µM (active) | 0.0308 µM (active) | 0.343 µM (active) | 0.121 µM (active) | 0.117 µM (active) | 0.0933 µM (active) | 0.0109 µM (active) | 0.108 µM (active) | < 0.0187 µM (active) | < 0.0156 µM (active) | < 0.01 µM (active)
6 | O=C1c2c(F)c(F)c(F)c(F)c2SC2=Nc3cccc4cccc(c34)N12 | 2.37 µM (inactive) | 2.86 µM (inactive) | 2.13 µM (inactive) | 1.56 µM (inactive) | 2.02 µM (inactive) | 6.18 µM (inactive) | 7.05 µM (inactive) | 5.41 µM (inactive) | 3.05 µM (inactive) | 3.21 µM (inactive) | 4.14 µM (inactive) | 12.1 µM (inactive) | 3.79 µM (inactive) | 10 µM (inactive) | 14.1 µM (inactive) | 3.31 µM (inactive) | 18.5 µM (inactive) | 3.88 µM (inactive) | 5.19 µM (inactive) | 4.08 µM (inactive)
7 | COc1ccc(/C=N/c2ccc(-c3nc4ccccc4[nH]3)cc2)cc1OC | 47 µM (inactive) | > 100 µM (inactive) | 81.7 µM (inactive) | > 100 µM (inactive) | > 100 µM (inactive) | > 100 µM (inactive) | > 100 µM (inactive) | 39.6 µM (inactive) | > 100 µM (inactive) | > 100 µM (inactive) | > 100 µM (inactive) | 22.3 µM (inactive) | > 100 µM (inactive) | > 100 µM (inactive) | > 100 µM (inactive) | > 100 µM (inactive) | > 100 µM (inactive) | > 100 µM (inactive) | > 100 µM (inactive) | > 100 µM (inactive)
8 | O=C1C=CC(=O)c2ncccc21 | 1.63 µM (inactive) | 10.2 µM (inactive) | 0.597 µM (active) | 2.19 µM (inactive) | 2.32 µM (inactive) | 7.98 µM (inactive) | 2.63 µM (inactive) | 9.04 µM (inactive) | 12.1 µM (inactive) | 1.3 µM (inactive) | 12.2 µM (inactive) | 5.36 µM (inactive) | 5.14 µM (inactive) | 3.98 µM (inactive) | 6.5 µM (inactive) | 0.787 µM (active) | 10.1 µM (inactive) | 10.3 µM (inactive) | 5.05 µM (inactive) | 1.89 µM (inactive)
